Assays:
[1] = system: HT-29 (monolayer culture of a human colon carcinoma); assay: Cytotoxic activity screening, HT-29 cells; format: cell-based; conditions: Homo sapiens, HT-29, 72 h, three days of incubation, Crystal Violet, approximate IC50
Experimental: (§1) Cell Cultures. Cells were maintained in logarithmic phase of growth in Eagle's Minimum Essential Medium, with Earle's Balanced Salts, with 2.0 mM L-glutamine, with non-essential amino acids, without sodium bicarbonate (EMEM/neaa); supplemented with 10% Fetal Calf Serum (FCS), 10^−2 M sodium bicarbonate and 0.1 g/l penicillin-G+streptomycin sulfate.
(§2) A simple screening procedure has been carried out to determine and compare the antitumour activity of these compounds, using an adapted form of the method described by Bergeron et al (1984). The tumour cell line employed have been P-388 (suspension culture of a lymphoid neoplasm from DBA/2 mouse), A-549 (monolayer culture of a human lung carcinoma), HT-29 (monolayer culture of a human colon carcinoma) and MEL-28 (monolayer culture of a human melanoma).
(§3) A-549, HT-29 and MEL-28 were seeded into 16 mm wells at 2×10^4 cells per well in 1 ml aliquots of MEM 10FCS containing the indicated concentration of drug. A separate set of cultures without drug was seeded as control growth to ensure that cells remained in exponential phase of growth. All determinations were carried out in duplicate. After three days of incubation at 37° C., 10% CO2 in a 98% humid atmosphere, the wells were stained with 0.1% Crystal Violet. An approximately IC50 was determined by comparing the growth in wells with drug to the growth in wells control.

[2] = system: A-549 (monolayer culture of a human lung carcinoma); assay: Cytotoxic activity screening, A-549 cells; format: cell-based; conditions: Homo sapiens, A549, 72 h, three days of incubation, Crystal Violet, approximate IC50
Experimental: as §1, §2, §3

Compound | IC50 [1] | IC50 [2]
COCCOCOc1c(OC)c(C)cc2c1[C@@H]1C3[C@@H]4SC[C@H](NC(=O)OCc5ccccc5)C(=O)OC[C@@H](c5c6c(c(C)c(OC(C)=O)c54)OCO6)N3[C@@H](C#N)[C@H](C2)N1C (some centres unmarked) | 0.59 µM | 0.59 µM
C=CCOc1c(C)c2c(c3c1CC1[C@H]4c5c(cc(C)c(OC)c5OCOC)C[C@@H]([C@H](C#N)N1[C@H]3COC(CSCC1c3ccccc3-c3ccccc31)NC(=O)OC(C)(C)C)N4C)OCO2 (some centres unmarked) | > 1 µM | > 1 µM
C=CCOc1c(C)c2c(c3c1CC1[C@H]4c5c(cc(C)c(OC)c5O)C[C@@H]([C@H](C#N)N1[C@H]3CO[Si](C)(C)C(C)(C)C)N4C)OCO2 (some centres unmarked) | > 1 µM | > 1 µM
C=CCOC(=O)NC(CSCC1c2ccccc2-c2ccccc21)OC[C@H]1C2=C3OCOC3=C(C)C(=O)C2(O)CC2[C@H]3c4c(cc(C)c(OC)c4OCOCCOC)C[C@@H]([C@H](C#N)N21)N3C (some centres unmarked) | > 1 µM | > 1 µM
COCCOCOc1c(OC)c(C)cc2c1[C@@H]1C3CC4(O)C(=O)C(C)=C5OCOC5=C4[C@H](COC(CSCC4c5ccccc5-c5ccccc54)NC(=O)OCc4ccccc4)N3[C@@H](C#N)[C@H](C2)N1C (some centres unmarked) | > 1 µM | > 1 µM
C=CCOC(=O)N[C@@H]1CS[C@@H]2c3c(OC(C)=O)c(C)c4c(c3[C@H](COC1=O)N1C2[C@H]2c3c(cc(C)c(OC)c3O)C[C@@H]([C@@H]1C#N)N2C)OCO4 (some centres unmarked) | – | 0.00015 µM
COCCOCOc1c(OC)c(C)cc2c1[C@@H]1C3Cc4c(O)c(C)c5c(c4[C@H](CO[Si](C)(C)C(C)(C)C)N3[C@@H](C#N)[C@H](C2)N1C)OCO5 (some centres unmarked) | > 1 µM | > 1 µM
C=CCOc1c(C)c2c(c3c1CC1[C@H]4c5c(cc(C)c(OC)c5O)C[C@@H]([C@H](C#N)N1[C@H]3COC(CSCC1c3ccccc3-c3ccccc31)NC(=O)OCc1ccccc1)N4C)OCO2 (some centres unmarked) | 0.11 µM | 0.11 µM
C=CCOc1c(C)c2c(c3c1CC1[C@H]4c5c(cc(C)c(OC)c5OCOCCOC)C[C@@H]([C@H](C#N)N1[C@H]3COC(CSCC1c3ccccc3-c3ccccc31)NC(=O)OC(C)(C)C)N4C)OCO2 (some centres unmarked) | > 1 µM | > 1 µM
COCOc1c(OC)c(C)cc2c1[C@@H]1C3CC4(O)C(=O)C(C)=C5OCOC5=C4[C@H](COC(CSCC4c5ccccc5-c5ccccc54)NC(=O)OC(C)(C)C)N3[C@@H](C#N)[C@H](C2)N1C (some centres unmarked) | > 1 µM | > 1 µM
C=CCOc1c(C)c2c(c3c1CC1[C@H]4c5c(cc(C)c(OC)c5O)C[C@@H]([C@H](C#N)N1[C@H]3COC(CSCC1c3ccccc3-c3ccccc31)NC(=O)OC(C)(C)C)N4C)OCO2 (some centres unmarked) | 0.0055 µM | 0.0055 µM
C=CCOc1c(C)c2c(c3c1CC1[C@H]4c5c(cc(C)c(OC)c5OCOCCOC)C[C@@H]([C@H](C#N)N1[C@H]3COC(CSCC1c3ccccc3-c3ccccc31)NC(=O)OCc1ccccc1)N4C)OCO2 (some centres unmarked) | > 1 µM | > 1 µM
COCCOc1c(OC)c(C)cc2c1[C@@H]1C3[C@@H]4SC[C@H](NC(=O)OCc5ccccc5)C(=O)OC[C@@H](c5c6c(c(C)c(OC(C)=O)c54)OCO6)N3[C@@H](C#N)[C@H](C2)N1C (some centres unmarked) | 0.062 µM | 0.062 µM
COc1c(C)cc2c(c1O)[C@@H]1C3[C@@H]4SC[C@H](NC(=O)OCc5ccccc5)C(=O)OC[C@@H](c5c6c(c(C)c(OC(C)=O)c54)OCO6)N3[C@@H](C#N)[C@H](C2)N1C (some centres unmarked) | 0.0013 µM | 0.0013 µM
COCCOCOc1c(OC)c(C)cc2c1[C@@H]1C3Cc4c(O)c(C)c5c(c4[C@H](COC(CSCC4c6ccccc6-c6ccccc64)NC(=O)OC(C)(C)C)N3[C@@H](C#N)[C@H](C2)N1C)OCO5 (some centres unmarked) | 0.01 µM | 0.01 µM
COCCOCOc1c(OC)c(C)cc2c1[C@@H]1C3CC4(O)C(=O)C(C)=C5OCOC5=C4[C@H](COC(CSCC4c5ccccc5-c5ccccc54)NC(=O)OC(C)(C)C)N3[C@@H](C#N)[C@H](C2)N1C (some centres unmarked) | 0.051 µM | 0.051 µM
COCCOCOc1c(OC)c(C)cc2c1[C@@H]1C3[C@@H]4SC[C@@H](NC(=O)OC(C)(C)C)C(=O)OC[C@@H](c5c6c(c(C)c(OC(C)=O)c54)OCO6)N3[C@@H](C#N)[C@H](C2)N1C (some centres unmarked) | – | 0.012 µM
